Where “and” joins values, the source holds several entries; their conditions need not be identical. Identical values can stand only once.
Assay: Clinical study on the action of the formulations for weight reduction
Assay type: in vivo, human
Conditions: body weight per patient; postmenopausal women aged 52-59; 100 mg chrysin daily after lunch for 5 days; each table row is one patient
Procedure: Eight women between 52 and 59 in age who were hormonally in postmenopause and despite an activity program and targeted nutrition observed no change in weight, took 100 mg of chrysin for 5 days. This dose is under the dosages of any formulations which are offered as food supplements. After a further 5 days, the patients were advised, in order to excite the conversion of peripheral […], to take additionally 100 mg of cholic acid as supplement. Intake proceeded in each case at midday after lunch.

In the case of `O=c1cc(-c2ccccc2)oc2cc(O)cc(O)c12` [chrysin], the “kg after 5 days of 100 mg of chrysin” value is reported as 73.5 kg and 69.5 kg (2×) and 65 kg and 71 kg and 78 kg and 70.2 kg and 67 kg.
